Key:
[1] = system: Puccinia recondita f. Sp. Tritici; assay: Fungicidal activity against Puccinia recondita f. sp. tritici / wheat / leaf disc curative (brown rust); format: in vivo; conditions: foliar, 24 h, 200 ppm in the applied formulation, wheat leaf segments, curative (applied 1 day after inoculation), compared to untreated control leaf disks, read-out: disease control
How it was run: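 Scoring is percent disease control relative to untreated segments, made 6 to 8 days after treatment. Wheat (cv. Kanzler) leaf segments received the formulated, water-diluted compound one day post-inoculation with spores, having been kept dark at 19° C and 75% RH, then incubated under 12 h light/12 h dark at the same temperature and humidity.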

[2] = system: Puccinia recondita f. Sp. Tritici; assay: Fungicidal activity against Puccinia recondita f. sp. tritici / wheat / leaf disc preventative (brown rust); format: in vivo; conditions: foliar, 200 ppm in the applied formulation, wheat leaf segments, preventative, compared to untreated control leaf disks, read-out: disease control
How it was run: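 Percent disease control relative to untreated check segments is scored once disease develops, 7 to 9 days after application. Wheat cv. Kanzler segments receive compound spray (200 ppm in formulation) one day before spore inoculation, then sit at 19° C. and 75% rh under 12 h light/12 h dark.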

[3] = system: Glomerella lagenarium (Colletotrichum lagenarium); assay: Fungicidal activity against Glomerella lagenarium (Colletotrichum lagenarium) liquid culture / cucumber / preventative (anthracnose); format: cell-based; conditions: Colletotrichum orbiculare; 20 ppm in the applied formulation; liquid culture (PDB), growth inhibition measured photometrically after 3 to 4 days; compared to untreated control; read-out: disease control
How it was run: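 Percent activity against the untreated check was derived from photometric growth measurements made 2 to 7 days after conidia in potato dextrose broth were combined with compound at 20 ppm. Cultures were kept dark at 24 °C and 96% humidity.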

Phakopsora Pachyrhizi = assay: Fungicidal activity against Phakopsora pachyrhizi / soybean / leaf disc preventative (Asian soybean rust); format: in vivo; conditions: foliar, 200 ppm in the applied formulation, soybean leaf disks, compared to untreated control leaf disks, read-out: disease control
How it was run: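 Scored 12 to 14 days post-application as percent control relative to untreated check discs, rust spores were sprayed under the disc one day after compound treatment. Incubation: 20°C, 75% rh, first 24–36 h in darkness, then 12 h daily light; discs kept on water agar.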

CON(Cc1c(F)cc(-c2noc(C(F)(F)F)n2)cc1F)C(=O)C1CC1 [Compound 1.596, N-[[2,6-difluoro-4-[5-(trifluoromethyl)-1,2,4-oxadiazol-3-yl]phenyl]methyl]-N-methoxy-cyclopropane-carboxamide]
≥ 80%: pest or weed control at 200 ppm [1] | pest or weed control at 200 ppm [2] | inhibition of growth at 20 ppm [3] | pest or weed control at 200 ppm (Phakopsora Pachyrhizi)

CN(Cc1ccc(-c2noc(C(F)(F)F)n2)cc1)C(=O)C1OCCO1 [Compound 1.531, N-methyl-N-[[4-[5-(trifluoromethyl)-1,2,4-oxadiazol-3-yl]phenyl]methyl]-1,3-dioxolane-2-carboxamide]
≥ 80%: pest or weed control at 200 ppm [1] | pest or weed control at 200 ppm [2] | inhibition of growth at 20 ppm [3] | pest or weed control at 200 ppm (Phakopsora Pachyrhizi)

O=C(N(Cc1ccc(-c2noc(C(F)(F)F)n2)cc1)C1CC1)C1(C(F)(F)F)CC1 [Compound 1.83, N-cyclopropyl-1-(trifluoromethyl)-N-[[4-[5-(trifluoromethyl)-1,2,4-oxadiazol-3-yl]phenyl]methyl]-cyclopropane-carboxamide]
≥ 80%: pest or weed control at 200 ppm [1] | pest or weed control at 200 ppm [2] | inhibition of growth at 20 ppm [3] | pest or weed control at 200 ppm (Phakopsora Pachyrhizi)

CCN(Cc1ccc(-c2noc(C(F)(F)F)n2)cc1)C(=O)COC [Compound 1.499, N-ethyl-2-methoxy-N-[[4-[5-(trifluoromethyl)-1,2,4-oxadiazol-3-yl]phenyl]methyl]-acetamide]
≥ 80%: pest or weed control at 200 ppm [1] | pest or weed control at 200 ppm [2] | inhibition of growth at 20 ppm [3] | pest or weed control at 200 ppm (Phakopsora Pachyrhizi)

COCCN(Cc1ccc(-c2noc(C(F)(F)F)n2)cc1)C(=O)C1CCC1 [Compound 1.337, N-(2-methoxyethyl)-N-[[4-[5-(trifluoromethyl)-1,2,4-oxadiazol-3-yl]phenyl]methyl]-cyclobutane-carboxamide]
≥ 80%: pest or weed control at 200 ppm [1] | pest or weed control at 200 ppm [2] | inhibition of growth at 20 ppm [3] | pest or weed control at 200 ppm (Phakopsora Pachyrhizi)

CCON(Cc1ccc(-c2noc(C(F)(F)F)n2)cc1)C(=O)C1(C)COC1 [Compound 1.623, N-ethoxy-3-methyl-N-[[4-[5-(trifluoromethyl)-1,2,4-oxadiazol-3-yl]phenyl]methyl]-oxetane-3-carboxamide]
≥ 80%: pest or weed control at 200 ppm [1] | pest or weed control at 200 ppm [2] | inhibition of growth at 20 ppm [3] | pest or weed control at 200 ppm (Phakopsora Pachyrhizi)

COCC(=O)N(OC)C(C)c1ccc(-c2noc(C(F)(F)F)n2)cc1 (centres unmarked) [Compound 1.253, N,2-dimethoxy-N-(1-[4-[5-(trifluoromethyl)-1,2,4-oxadiazol-3-yl]phenyl]ethyl]-acetamide]
≥ 80%: pest or weed control at 200 ppm [1] | pest or weed control at 200 ppm [2] | inhibition of growth at 20 ppm [3] | pest or weed control at 200 ppm (Phakopsora Pachyrhizi)

O=C(CC1CC1(F)F)N(Cc1ccc(-c2noc(C(F)(F)F)n2)cc1)C1CC1 (centres unmarked) [Compound 1.138, N-cyclopropyl-2-(2,2-difluorocyclopropyl)-N-[[4-[5-(trifluoromethyl)-1,2,4-oxadiazol-3-yl]phenyl]methyl]-acetamide]
≥ 80%: pest or weed control at 200 ppm [1] | pest or weed control at 200 ppm [2] | inhibition of growth at 20 ppm [3] | pest or weed control at 200 ppm (Phakopsora Pachyrhizi)

CC(C)N(Cc1ccc(-c2noc(C(F)(F)F)n2)cc1)C(=O)C1(C)COC1 [Compound 1.679, N-isopropyl-3-methyl-N-[[4-[5-(trifluoromethyl)-1,2,4-oxadiazol-3-yl]phenyl]methyl]-oxetane-3-carboxamide]
≥ 80%: pest or weed control at 200 ppm [1] | pest or weed control at 200 ppm [2] | inhibition of growth at 20 ppm [3] | pest or weed control at 200 ppm (Phakopsora Pachyrhizi)

CON(Cc1ccc(-c2noc(C(F)(F)F)n2)cc1)C(=O)C1CC1(C)C (centres unmarked) [Compound 1.47, N-methoxy-2,2-dimethyl-N-[[4-[5-(trifluoromethyl)-1,2,4-oxadiazol-3-yl]phenyl]methyl]-cyclopropane-carboxamide]
≥ 80%: pest or weed control at 200 ppm [1] | pest or weed control at 200 ppm [2] | inhibition of growth at 20 ppm [3] | pest or weed control at 200 ppm (Phakopsora Pachyrhizi)

COCCN(Cc1ccc(-c2noc(C(F)(F)F)n2)cc1)C(=O)CC1CC1 [Compound 1.331, 2-cyclopropyl-N-(2-methoxyethyl)-N-[[4-[5-(trifluoromethyl)-1,2,4-oxadiazol-3-yl]phenyl]methyl]-acetamide]
≥ 80%: pest or weed control at 200 ppm [1] | pest or weed control at 200 ppm [2] | inhibition of growth at 20 ppm [3] | pest or weed control at 200 ppm (Phakopsora Pachyrhizi)

O=C(Cc1cccnc1)N(Cc1ccc(-c2noc(C(F)(F)F)n2)cc1)C1CC1 [Compound 1.102, N-cyclopropyl-2-(3-pyridyl)-N-[[4-[5-(trifluoromethyl)-1,2,4-oxadiazol-3-yl]phenyl]methyl]-acetamide]
≥ 80%: pest or weed control at 200 ppm [1] | pest or weed control at 200 ppm [2] | inhibition of growth at 20 ppm [3] | pest or weed control at 200 ppm (Phakopsora Pachyrhizi)

CCCON(Cc1ccc(-c2noc(C(F)(F)F)n2)cc1)C(=O)C1CCCN1C(C)=O (centres unmarked) [Compound 1.314, 1-acetyl-N-propoxy-N-[[4-[5-(trifluoromethyl)-1,2,4-oxadiazol-3-yl]phenyl]methyl]-pyrrolidine-2-carboxamide]
≥ 80%: pest or weed control at 200 ppm [1] | pest or weed control at 200 ppm [2] | inhibition of growth at 20 ppm [3] | pest or weed control at 200 ppm (Phakopsora Pachyrhizi)

O=C(C1CCSCC1)N(Cc1ccc(-c2noc(C(F)(F)F)n2)cc1)CC1CC1 [Compound 1.230, N-(cyclopropylmethyl)-N-[[4-[5-(trifluoromethyl)-1,2,4-oxadiazol-3-yl]phenyl]methyl]-tetrahydrothiopyran-4-carboxamide]
≥ 80%: pest or weed control at 200 ppm [1] | pest or weed control at 200 ppm [2] | inhibition of growth at 20 ppm [3] | pest or weed control at 200 ppm (Phakopsora Pachyrhizi)

C=CCN(Cc1ccc(-c2noc(C(F)(F)F)n2)cc1)C(=O)COC [Compound 1.479, N-allyl-2-methoxy-N-[[4-[5-(trifluoromethyl)-1,2,4-oxadiazol-3-yl]phenyl]methyl]-acetamide]
≥ 80%: pest or weed control at 200 ppm [1] | pest or weed control at 200 ppm [2] | inhibition of growth at 20 ppm [3] | pest or weed control at 200 ppm (Phakopsora Pachyrhizi)

C=CCCC(=O)N(Cc1ccc(-c2noc(C(F)(F)F)n2)cc1)OC [Compound 1.17, N-methoxy-N-[[4-[5-(trifluoromethyl)-1,2,4-oxadiazol-3-yl]phenyl]methyl]-pent-4-enamide]
≥ 80%: pest or weed control at 200 ppm [1] | pest or weed control at 200 ppm [2] | inhibition of growth at 20 ppm [3] | pest or weed control at 200 ppm (Phakopsora Pachyrhizi)

CC1CC1C(=O)N(CCO)Cc1ccc(-c2noc(C(F)(F)F)n2)cc1 (centres unmarked) [Compound 1.717, N-(2-hydroxyethyl)-2-methyl-N-[[4-[5-(trifluoromethyl)-1,2,4-oxadiazol-3-yl]phenyl]methyl]-cyclopropane-carboxamide]
≥ 80%: pest or weed control at 200 ppm [1] | pest or weed control at 200 ppm [2] | inhibition of growth at 20 ppm [3] | pest or weed control at 200 ppm (Phakopsora Pachyrhizi)

COC(=O)ON(Cc1ccc(-c2noc(C(F)(F)F)n2)cc1)C(=O)OC [Compound 2.25, [methoxycarbonyl-[[4-[5-(trifluoromethyl)-1,2,4-oxadiazol-3-yl]phenyl]methyl]-amino]methyl carbonate]
≥ 80%: pest or weed control at 200 ppm [1] | pest or weed control at 200 ppm [2] | inhibition of growth at 20 ppm [3] | pest or weed control at 200 ppm (Phakopsora Pachyrhizi)

CCON(Cc1ccc(-c2noc(C(F)(F)F)n2)cc1)C(=O)C1CC1C (centres unmarked) [Compound 1.620]
≥ 80%: pest or weed control at 200 ppm [1] | pest or weed control at 200 ppm [2] | inhibition of growth at 20 ppm [3] | pest or weed control at 200 ppm (Phakopsora Pachyrhizi)

CCN(Cc1ccc(-c2noc(C(F)(F)F)n2)cc1)C(=O)C1CC1 [Compound 1.514, N-ethyl-N-[[4-[5-(trifluoromethyl)-1,2,4-oxadiazol-3-yl]phenyl]methyl]-cyclopropane-carboxamide]
≥ 80%: pest or weed control at 200 ppm [1] | pest or weed control at 200 ppm [2] | inhibition of growth at 20 ppm [3] | pest or weed control at 200 ppm (Phakopsora Pachyrhizi)

— patent US11180462B2, “Microbiocidal oxadiazole derivatives” (SYNGENTA PARTICIPATIONS AG, priority 2015, dated 2021)
